Data taken from patent US20240174618A1, “SUBSTITUTED (2-HETEROARYLOXYPHENYL)SULFONATES, SALTS THEREOF AND THEIR USE AS HERBICIDAL AGENTS” (Bayer Aktiengesellschaft, priority 2021, published 2024).

Columns and labels:
Format in all cases: in vivo
Veronica persica (VERPE) [1] = assay: A. Herbicidal pre-emergence efficacy, VERPE; settings: for Pre-emergence efficacy against VERPE: dosage 80 g/ha
Method in brief: (§1)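 Applied before emergence onto covering soil at rates of 1280 g/ha or less, using 600 L/ha spray water with 0.5% additive. Scoring: visual % efficacy after ~3 weeks, greenhouse.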

Veronica persica (VERPE) [2] = assay: B. Herbicidal post-emergence efficacy, VERPE
Method in brief: (§2)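 Post-emergence greenhouse test: one-leaf-stage plants, compound (WP/EC, +0.5% additive, 600 L/ha water, ≤1280 g/ha) applied to green parts; % efficacy scored visually vs untreated after ~3 wk; 100% = plants died.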

[3] = tested on: Polygonum convolvulus (POLCO); assay: E. Herbicidal post-emergence efficacy, POLCO
Method in brief: (§3)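 Visual scoring against untreated plants was done roughly 3 weeks after spraying (0% = no effect, 100% = plants dead). Spray application at 320 g/ha or lower, 600 l/ha water with 0.5% additive, was made onto green parts of one-leaf-stage greenhouse plants grown 2-3 weeks in sandy loam.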

[4] = tested on: Echinochloa crus-galli (ECHCG); assay: C. Herbicidal pre-emergence efficacy, ECHCG; settings: scored after about 3 weeks
Method in brief: (§4)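 Pre-emergence test: formulated compounds sprayed as aqueous suspension or emulsion with 0.5% additive at 600 l/ha onto soil covering sown seeds, at rates corresponding to 320 g/ha or less. After about 3 weeks in greenhouse, efficacy scored visually as percent versus untreated controls (100% = plants dead).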

[5] = tested on: Pharbitis purpurea (PHBPU); assay: E. Herbicidal post-emergence efficacy, PHBPU
Method in brief: as §3

[6] = tested on: Echinochloa crus-galli (ECHCG); assay: A. Herbicidal pre-emergence efficacy, ECHCG; settings: scored visually after about 3 weeks vs untreated controls
Method in brief: as §1

[7] = tested on: Abutilon theophrasti (ABUTH); assay: C. Herbicidal pre-emergence efficacy, ABUTH; settings: scored after about 3 weeks
Method in brief: as §4

Stellaria media (STEME) = assay: B. Herbicidal post-emergence efficacy, STEME
Method in brief: as §2

SMILES | Pre-emergence efficacy against VERPE in % (Veronica persica (VERPE) [1]; 320 g/ha) [%] | Pre-emergence efficacy against VERPE in % (Veronica persica (VERPE) [1]; 1280 g/ha) [%] | Pre-emergence efficacy against VERPE (Veronica persica (VERPE) [1]) [%] | Post-emergence efficacy against VERPE (Veronica persica (VERPE) [2]; 320 g/ha) [%] | Post-emergence efficacy against VERPE (Veronica persica (VERPE) [2]; 1280 g/ha) [%] | Post-emergence efficacy against POLCO in % ([3]; application rate 320 g/ha) [%] | Pre-emergence efficacy against ECHCG ([4]; 80 g/ha) [%] | Pre-emergence efficacy against ECHCG ([4]; 320 g/ha) [%] | Post-emergence efficacy against PHBPU in % ([5]; application rate 80 g/ha) [%] | Post-emergence efficacy against PHBPU in % ([5]; application rate 320 g/ha) [%] | Pre-emergence efficacy against ECHCG ([6]; 320 g/ha) [%] | Pre-emergence efficacy against ECHCG ([6]; 1280 g/ha) [%] | Pre-emergence efficacy against ABUTH ([7]; 320 g/ha) [%] | Post-emergence efficacy against STEME (Stellaria media (STEME); 80 g/ha) [%] | Post-emergence efficacy against STEME (Stellaria media (STEME); 320 g/ha) [%] | Post-emergence efficacy against STEME (Stellaria media (STEME); 1280 g/ha) [%] | Post-emergence efficacy against VERPE (Veronica persica (VERPE) [2]; 80 g/ha) [%] | Pre-emergence efficacy against ECHCG ([6]; 80 g/ha) [%] | Pre-emergence efficacy against ABUTH ([7]; 80 g/ha) [%] | Post-emergence efficacy against POLCO in % ([3]; application rate 80 g/ha) [%]
C=CCCS(=O)(=O)Oc1c(F)cccc1Oc1ncc(Cl)cn1 [Example I-50] | 100 | 100 | 90 | 90 | 90 | 100 | 80 | 100 | 90 | 90 | 90 | 100 | 100 | – | – | – | – | – | – | –
O=S(=O)(CCCC(F)F)Oc1c(F)cccc1Oc1ncc(Cl)cn1 [Example I-56] | 100 | 100 | – | 90 | 90 | 100 | 100 | 100 | 100 | 100 | 100 | 100 | 100 | 90 | 90 | 90 | 90 | 100 | 100 | –
O=S(=O)(CC1CC1)Oc1ccccc1Oc1ncc(Cl)cn1 [Example I-23] | 100 | 100 | 90 | 100 | 100 | 100 | 100 | 100 | – | 100 | 90 | 90 | 100 | 90 | 100 | 100 | 90 | 90 | 100 | 100
O=S(=O)(CCCC(F)(F)C(F)(F)F)Oc1c(F)cccc1Oc1ncc(Cl)cn1 [Example I-68] | 100 | 100 | – | 100 | 100 | 90 | – | 90 | 80 | 90 | 90 | 100 | 100 | 90 | 100 | 100 | 100 | – | 100 | 80
O=S(=O)(CCCC(F)(F)F)Oc1c(F)cccc1Oc1ncc(Br)cn1 [Example I-41] | 100 | 100 | 90 | 90 | 90 | 100 | 100 | 100 | 100 | 100 | 100 | 100 | 100 | 90 | 90 | 90 | 90 | – | 100 | 100
O=S(=O)(CCCCCl)Oc1ccccc1Oc1ncc(Cl)cn1 [Example I-15] | 90 | 90 | – | 100 | 100 | 100 | – | 90 | 90 | 100 | 100 | 100 | 100 | 100 | 100 | 100 | 100 | 100 | – | 80
Cc1cccc(OS(=O)(=O)CCCCl)c1Oc1ncc(Cl)cn1 [Example I-12] | 90 | 100 | – | – | 90 | 100 | 90 | 90 | 90 | 90 | 90 | 100 | 90 | 90 | 90 | 100 | – | – | 80 | –
O=S(=O)(CCC(F)(F)F)Oc1ccccc1Oc1ncc(Cl)cn1 [Example I-8] | 100 | 100 | 100 | – | 90 | 90 | 100 | 100 | – | 100 | 90 | 100 | 100 | – | 90 | 90 | – | 90 | 100 | 90
CCCS(=O)(=O)Oc1ccccc1Oc1ncc(Cl)cn1 [Example I-3] | 100 | 100 | 100 | 100 | 100 | 90 | 90 | 100 | – | 90 | 100 | 100 | 100 | – | 90 | 100 | 90 | – | 100 | –
O=S(=O)(CCC(F)(F)F)Oc1c(F)cccc1Oc1ncc(Br)cn1 [Example I-40] | 100 | 100 | 100 | 90 | 90 | 100 | 100 | 100 | 100 | 100 | 100 | 100 | 100 | – | – | – | 90 | 100 | 100 | 100
